Patent US20250270190A1, “KIT INHIBITORS” (BLUEPRINT MEDICINES CORPORATION, priority 2022, published 2025)
Structures can show the parent of a compound that is named as a salt.

Molecular target: T1, c-kit autophosphorylation (Phospho c-Kit Tyr721) in HMC 1.1 (exon 11/13) cells, V654A (Homo sapiens, UniProt P10721, V560G/V654A)
T1 construct: endogenous in cells; host or cells: HMC 1.1 (exon 11/13) cells
Assay: pKIT Meso Scale Discovery (MSD) assay, inhibition of autophosphorylation of KIT, HMC1.1_V654A
Format: cell-based
Conditions: Table 1, cell line not named for Table 1, b1056 names pKIT HMC1.1_V654A, read-out: Code (IC50 for inhibition of autophosphorylation of KIT, pKIT MSD assay)
Outline: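 HMC1.1 cells were serum-starved for 4 h in serum-free, iron-free, phenol red-free IMDM, then treated with compound in dose-response for 90 min at 37 °C. Staurosporine and DMSO served as controls. Lysates were analysed by MSD electrochemiluminescence immunoassay for phospho-c-Kit Tyr721, and % inhibition of autophosphorylation was derived.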

T1 sequence (P10721 26-976 V560G/V654A): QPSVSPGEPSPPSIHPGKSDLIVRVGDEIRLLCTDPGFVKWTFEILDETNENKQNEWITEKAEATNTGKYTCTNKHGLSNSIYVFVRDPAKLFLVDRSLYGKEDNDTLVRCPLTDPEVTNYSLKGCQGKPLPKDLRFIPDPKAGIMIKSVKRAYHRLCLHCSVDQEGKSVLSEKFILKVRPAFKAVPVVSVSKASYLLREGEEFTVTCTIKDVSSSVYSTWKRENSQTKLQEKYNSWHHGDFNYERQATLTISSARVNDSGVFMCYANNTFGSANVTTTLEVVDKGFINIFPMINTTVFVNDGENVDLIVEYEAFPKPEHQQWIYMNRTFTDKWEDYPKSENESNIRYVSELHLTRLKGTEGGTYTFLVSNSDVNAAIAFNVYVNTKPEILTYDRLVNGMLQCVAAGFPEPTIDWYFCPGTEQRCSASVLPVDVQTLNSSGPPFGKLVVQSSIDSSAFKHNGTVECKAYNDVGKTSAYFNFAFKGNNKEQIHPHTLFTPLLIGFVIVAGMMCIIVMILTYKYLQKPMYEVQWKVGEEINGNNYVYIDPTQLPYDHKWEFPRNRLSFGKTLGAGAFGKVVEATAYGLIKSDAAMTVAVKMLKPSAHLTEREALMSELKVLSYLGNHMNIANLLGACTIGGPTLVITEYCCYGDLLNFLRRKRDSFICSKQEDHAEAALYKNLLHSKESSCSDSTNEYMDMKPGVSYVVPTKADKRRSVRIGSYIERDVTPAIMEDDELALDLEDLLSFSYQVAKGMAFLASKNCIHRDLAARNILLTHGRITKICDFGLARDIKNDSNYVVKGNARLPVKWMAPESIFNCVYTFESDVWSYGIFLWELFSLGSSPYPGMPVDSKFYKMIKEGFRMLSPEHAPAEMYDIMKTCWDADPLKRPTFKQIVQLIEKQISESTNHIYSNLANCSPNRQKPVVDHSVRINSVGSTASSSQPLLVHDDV

IC50 [nM]	Structure (SMILES)
< 10	Cn1cc(-c2cnc(Nc3cc(N)nc(CF)n3)cc2OC2CC2)cn1 [Compound 32, N4-(4-cyclopropoxy-5-(1-methyl-1H-pyrazol-4-yl)pyridin-2-yl)-2-(fluoromethyl)pyrimidine-4,6-diamine]
< 10	COc1cc(Nc2cc(N)nc(C(F)F)n2)ncc1-c1cnn(C(C)(C)CO)c1 [Compound 122, 2-(4-(6-((6-amino-2-(difluoromethyl)pyrimidin-4-yl)amino)-4-methoxypyridin-3-yl)-1H-pyrazol-1-yl)-2-methylpropan-1-ol]
< 10	CC(C)Oc1cc(Nc2cc(N)nc([C@H](C)F)n2)ncc1-c1cnn([C@@H]2CCOC2)c1 (single isomer, unassigned) [Compound 156, 2-((S)-1-fluoroethyl)-N4-(4-isopropoxy-5-(1-((R)-tetrahydrofuran-3-yl)-1H-pyrazol-4-yl)pyridin-2-yl)pyrimidine-4,6-diamine or 2-((S)-1-fluoroethyl)-N4-(4-isopropoxy-5-(1-((S)-tetrahydrofuran-3-yl)-1H-pyrazol-4-yl)pyridin-2-yl)pyrimidine-4,6-diamine]
< 10	CCOc1cc(Nc2cc(N)nc(C(F)F)n2)ncc1-c1cnn(C)c1 [Compound 34, 2-(difluoromethyl)-N4-(4-ethoxy-5-(1-methyl-1H-pyrazol-4-yl)pyridin-2-yl)pyrimidine-4,6-diamine]
< 10	CCNC(=O)c1cnc(Nc2cc(N)nc(C(F)F)n2)cc1N[C@@H](C)CF [Compound 71, (S)-6-((6-amino-2-(difluoromethyl)pyrimidin-4-yl)amino)-N-ethyl-4-((1-fluoropropan-2-yl)amino)nicotinamide]
> 40	CCNc1cc(Nc2cc(N)nc([C@@H](C)F)n2)ncc1C(=O)NC [Compound 10, (R)-6-((6-amino-2-(1-fluoroethyl)pyrimidin-4-yl)amino)-4-(ethylamino)-N-methylnicotinamide]
> 40	CNC(=O)c1cnc(Nc2cc(N)nc(CF)n2)cc1N[C@H]1CCOC1 [Compound 36, (S)-6-((6-amino-2-(fluoromethyl)pyrimidin-4-yl)amino)-N-methyl-4-((tetrahydrofuran-3-yl)amino)nicotinamide]
< 10	CNC(=O)c1cnc(Nc2cc(N)nc(C(F)F)n2)cc1NC [Compound 4, 6-((6-amino-2-(difluoromethyl)pyrimidin-4-yl)amino)-N-methyl-4-(methylamino)nicotinamide]
< 10	COCCn1cc(-c2cnc(Nc3cc(N)nc(C(F)F)n3)cc2OC)cn1 [Compound 84, 2-(difluoromethyl)-N4-(4-methoxy-5-(1-(2-methoxyethyl)-1H-pyrazol-4-yl)pyridin-2-yl)pyrimidine-4,6-diamine]
< 10	COc1cc(Nc2cc(N)nc(C(F)F)n2)ncc1-c1cnn(C[C@@H]2CCN2)c1 (single isomer, unassigned) [Compound 102, (S)-N4-(5-(1-(azetidin-2-ylmethyl)-1H-pyrazol-4-yl)-4-methoxypyridin-2-yl)-2-(difluoromethyl)pyrimidine-4,6-diamine or (R)-N4-(5-(1-(azetidin-2-ylmethyl)-1H-pyrazol-4-yl)-4-methoxypyridin-2-yl)-2-(difluoromethyl)pyrimidine-4,6-diamine]
10 to 40	Cn1cc(-c2cnc(Nc3cc(N)nc(C(F)F)n3)cc2OCC2CCCCO2)cn1 (stereo not drawn) [Compound 172, 2-(difluoromethyl)-N4-(5-(1-methyl-1H-pyrazol-4-yl)-4-((tetrahydro-2H-pyran-2-yl)methoxy)pyridin-2-yl)pyrimidine-4,6-diamine]
< 10	CCCNc1cc(Nc2cc(N)nc(C(F)F)n2)ncc1C(=O)NC [Compound 26, 6-((6-amino-2-(difluoromethyl)pyrimidin-4-yl)amino)-N-methyl-4-(propylamino)nicotinamide]
< 10	CN1CCC(n2cc(-c3cnc(Nc4cc(N)nc(C(F)F)n4)cc3OC(F)F)cn2)C1 (stereo not drawn) [Compound 192, N4-(4-(difluoromethoxy)-5-(1-(1-methylpyrrolidin-3-yl)-1H-pyrazol-4-yl)pyridin-2-yl)-2-(difluoromethyl)pyrimidine-4,6-diamine]
< 10	CNC(=O)c1cnc(Nc2cc(N)nc(CF)n2)cc1N[C@@H](C)C(F)F [Compound 46, (S)-6-((6-amino-2-(fluoromethyl)pyrimidin-4-yl)amino)-4-((1,1-difluoropropan-2-yl)amino)-N-methylnicotinamide]
< 10	Nc1cc(Nc2cc(OC3CC3)c(-c3cnn(CCO)c3)cn2)nc(C(F)F)n1 [Compound 108, 2-(4-(6-((6-amino-2-(difluoromethyl)pyrimidin-4-yl)amino)-4-cyclopropoxypyridin-3-yl)-1H-pyrazol-1-yl)ethan-1-ol]
< 10	CN[C@@H](C)Cn1cc(-c2cnc(Nc3cc(N)nc(C(F)F)n3)cc2OC)cn1 (single isomer, unassigned) [Compound 117, (S)-2-(difluoromethyl)-N4-(4-methoxy-5-(1-(2-(methylamino)propyl)-1H-pyrazol-4-yl)pyridin-2-yl)pyrimidine-4,6-diamine or (R)-2-(difluoromethyl)-N4-(4-methoxy-5-(1-(2-(methylamino)propyl)-1H-pyrazol-4-yl)pyridin-2-yl)pyrimidine-4,6-diamine]
> 40	COc1cc(Nc2cc(N)nc(C(F)F)n2)ncc1-c1cnn(C2CNC2)c1 [Compound 76, N4-(5-(1-(azetidin-3-yl)-1H-pyrazol-4-yl)-4-methoxypyridin-2-yl)-2-(difluoromethyl)pyrimidine-4,6-diamine formate]
< 10	CCNc1cc(Nc2cc(N)nc([C@H](C)F)n2)ncc1C(=O)NC [Compound 11, (S)-6-((6-amino-2-(1-fluoroethyl)pyrimidin-4-yl)amino)-4-(ethylamino)-N-methylnicotinamide]
10 to 40	CNc1cc(Nc2cc(N)nc(C(F)F)n2)ncc1-c1cn(C)nn1 [Compound 17, 2-(difluoromethyl)-N4-(5-(1-methyl-1H-1,2,3-triazol-4-yl)-4-(methylamino)pyridin-2-yl)pyrimidine-4,6-diamine]
< 10	CC(CF)Oc1cc(Nc2cc(N)nc(C(F)F)n2)ncc1-c1cnn(CC(C)(C)O)c1 (stereo not drawn) [Compound 190, 1-(4-(6-((6-amino-2-(difluoromethyl)pyrimidin-4-yl)amino)-4-((1-fluoropropan-2-yl)oxy)pyridin-3-yl)-1H-pyrazol-1-yl)-2-methylpropan-2-ol]
< 10	CNC(=O)c1cnc(Nc2cc(N)nc(CF)n2)cc1NC1CCC1 [Compound 14, 6-((6-amino-2-(fluoromethyl)pyrimidin-4-yl)amino)-4-(cyclobutylamino)-N-methylnicotinamide]
< 10	CNC(C)(C)Cn1cc(-c2cnc(Nc3cc(N)nc(C(F)F)n3)cc2OC2CC2)cn1 [Compound 184, N4-(4-cyclopropoxy-5-(1-(2-methyl-2-(methylamino)propyl)-1H-pyrazol-4-yl)pyridin-2-yl)-2-(difluoromethyl)pyrimidine-4,6-diamine]
> 40	Cc1noc(-c2cnc(Nc3cc(N)nc(C(F)F)n3)cc2NC(C)C)n1 [Compound 58, 2-(difluoromethyl)-N4-(4-(isopropylamino)-5-(3-methyl-1,2,4-oxadiazol-5-yl)pyridin-2-yl)pyrimidine-4,6-diamine]
> 40	CNc1cc(Nc2cc(N)nc(C(F)F)n2)ncc1C(N)=O [Compound 2, 6-((6-amino-2-(difluoromethyl)pyrimidin-4-yl)amino)-4-(methylamino)nicotinamide]
